Reference: patent US8410173B2, “Inhibition of JAK2 as a treatment of pulmonary arterial hypertension” (YM Biosciences Australia Pty Ltd, priority 2006, dated 2013)
“Also recorded” adds a separate entry of the source. Marks after values point to notes of the source that are not given here.

Legend:
[1] = test system: plexiform lesions in lungs of monocrotaline treated rats; assay: histological studies (H&E) of lungs, rat monocrotaline model; format: in vivo; details: AG490 1 mg/kg tid, H&E stains of formalin fixed lungs
Description: A. Normal lung; B. Lung from monocrotaline treated animal. C. Lung from rat given monocrotaline and AG490 1 mg/kg tid. The arrows point to pulmonary arterioles.
Histological studies of the lungs from group 2 and group 5 were performed to determine the effect of selective JAK2 inhibition on the pulmonary vascular lesions associated with PAH.

[2] = test system: rat monocrotaline model of pulmonary arterial hypertension; assay: rat monocrotaline model of pulmonary arterial hypertension, RV pressures; format: in vivo; details: for RVEDP Mean / RVS Mean Difference (I − J) vs group 1 (saline control) / RVS Mean Difference (I − J) vs group 2 (monocrotaline, vehicle): day 21
Description: To test the efficacy of JAK2 inhibition as a treatment for PAH, the rat monocrotaline model of pulmonary arterial hypertension was used. Animals with pulmonary arterial hypertension induced by monocrotaline were treated for three weeks with the selective JAK2 inhibitor, AG490, or vehicle. AG490 is a tyrphostin based tyrosine kinase inhibitor selective for JAK2.

[3] = test system: rat monocrotaline model of PAH; details: cited from earlier work; for efficacy in the rat monocrotaline model of PAH: sildenafil oral, alone or in combination with beraprost
[4] = group 3, AG490 1 mg/kg/day SID IP
[5] = group 4, AG490 3 mg/kg/day SID IP
[6] = group 5, AG490 1 mg/kg/dose TID IP

For `N#C/C(=C\c1ccc(O)c(O)c1)C(=O)NCc1ccccc1` [AG490], the “plexiform lesions associated with pulmonary arterial hypertension” value [1] was “prevented the formation of plexiform lesions; also recorded: decreased”, the “reduction of RV systolic pressure vs vehicle treated group” value ([2]; AG490 1 mg/kg tid, day 21, p=0.023) was 24% and the RV systolic pressure ([2]; AG490 1 mg/kg tid, monocrotaline treated rats, day 21 (group 5), vehicle 38.44±3.1) was 29.23±4.5 mm Hg. For the same compound, the “RV systolic pressure improvement, in words” value ([2]; group 3, AG490 1 mg/kg/day) was “No improvement”, the “RVEDP Mean Difference (I − J) vs group 1 (saline control)” value [2, 4] was 5.5436 and the “RVEDP Mean Difference (I − J) vs group 2 (monocrotaline, vehicle)” value [2, 4] was “−.0585”. The “RVEDP Mean” value [2, 4] was 4.042 mm Hg, the “RVS Mean Difference (I − J) vs group 1 (saline control)” value (shortened to “RVS Mean Difference … (saline control)”) [2, 4] was 11.468* and the “RVS Mean Difference (I − J) vs group 2 (monocrotaline, vehicle)” value [2, 4] was −2.487. The “RVEDP Mean Difference (I − J) vs group 1 (saline control)” value [2, 5] was “.6433”, the “RVEDP Mean Difference (I − J) vs group 2 (monocrotaline, vehicle)” value [2, 5] was −4.9588 and the “RVEDP Mean” value [2, 5] was “−.858 mm Hg”. For the same compound, the “RVS Mean Difference … (saline control)” value [2, 5] was 6.730, the “RVS Mean Difference (I − J) vs group 2 (monocrotaline, vehicle)” value [2, 5] was −7.225 and the “RV systolic pressure compared to group 2 (vehicle only), in words” value ([2]; group 5, AG490 1 mg/kg tid, p=0.023, 1 mg/kg) was “significantly reduced; also recorded: significant reduction; also recorded: significantly lower”. The “RV End diastolic pressure compared to group 2 (vehicle), in words” value ([2]; group 5, AG490 1 mg/kg tid, p=0.05) was “significantly lower”, the “RVEDP Mean Difference (I − J) vs group 1 (saline control)” value [2, 6] was “−.0193” and the “RVEDP Mean Difference (I − J) vs group 2 (monocrotaline, vehicle)” value [2, 6] was −5.6214*. The “RVEDP Mean” value [2, 6] was −1.521 mm Hg, the “RVS Mean Difference … (saline control)” value [2, 6] was 4.741 and the “RVS Mean Difference (I − J) vs group 2 (monocrotaline, vehicle)” value [2, 6] was −9.214*.
In the case of `O=C(C(=O)N1CCn2nc(-c3ccc(F)cc3)c(-c3ccncc3)c2N1)c1ccccc1.O=S(=O)(O)O` [FR167653], the “progression of PAH” value ([3]; rat monocrotaline model) is given as “decrease the progression of PAH”.
In the case of `COc1ccccc1Oc1c(NS(=O)(=O)c2ccc(C(C)(C)C)cc2)nc(-c2ncccn2)nc1OCCO` [bosentan], the pulmonary artery thickening ([3]; rat monocrotaline model) is listed as “decrease pulmonary artery thickening” and the pulmonary hypertension ([3]; rat monocrotaline model) is listed as “reduce pulmonary hypertension”.
For `O=S(=O)(c1cccc2cnccc12)N1CCCNCC1` [fasudil], the “progression of PAH” value ([3]; rat monocrotaline model) is listed as “prevented the progression of PAH”, the “pulmonary arterial hypertension, pulmonary vascular lesions, endothelial cell dysfunction, and RV hypertrophy” value ([3]; rat monocrotaline model) is listed as “decreased” and the survival ([3]; rat monocrotaline model) is listed as “improved survival”.
For `CC#CCC(C)[C@H](O)/C=C/[C@@H]1[C@H]2C/C(=C/CCCC(=O)O)C[C@H]2C[C@H]1O` (stereo partly shown) [iloprost], the “efficacy in the rat monocrotaline model of PAH” value [3] is given as “showed efficacy”.
In the case of `Cc1ccc(NC(=O)c2ccc(CN3CCN(C)CC3)cc2)cc1Nc1nccc(-c2cccnc2)n1` [imantinib], the RV systolic pressure ([3]; rat monocrotaline model) is given as “decreased” and the survival ([3]; rat monocrotaline model) is given as “improved survival”.
For `CCCc1nn(C)c2c(=O)[nH]c(-c3cc(S(=O)(=O)N4CCN(C)CC4)ccc3OCC)nc12` [sildenafil], the “efficacy in the rat monocrotaline model of PAH” value [3] is given as “showed efficacy”.
